According to patent US20250129021A1, “SMALL MOLECULE PROTEIN SYNTHESIS MODULATORS” (Interdict Bio, Inc., priority 2023, published 2025):
Structures can show the parent of a compound that is named as a salt.

Assays:
Assay type in all cases: biochemical
Details in all cases: HeLa S3 lysate, sfGFP/mCherry ratio, 2 hrs at 30° C.
MYC = test: In vitro transcription-translation (IVTT) assay, MYC reporter
Procedure, shortened: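 Reporter: mCherry, P2A, then 3×FLAG-target peptide-sfGFP fusion, IRES-initiated; HeLa S3 lysate IVTT; cpd dilutions 30 μM−0.1 μM half-log in 100% DMSO (dilution-plate conc); DNA added last; 2 h, 30° C; PBS quench.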

ALK = test: In vitro transcription-translation (IVTT) assay, ALK reporter
Text: (§1) All reporter constructs have been cloned into the pT7CFE1-CHis plasmid (ThermoFisher #88860) using Gibson assembly procedures (NEB #E2611L). The parental pT7CFE1-CHis plasmid contains an EMCV IRES at the 5′UTR for translation initiation, a multiple-cloning site (MCS) for gene insertion, an optional C-terminal His-epitope tag, and polyA sequence in the 3′UTR to regulate mRNA stability. All reporters are designed to be inserted at the MCS to include a red fluorescent protein (mCherry), P2A self-cleaving peptide which releases the preceding mCherry protein product, and a fusion open reading frame containing a 3×FLAG epitope, a peptide sequence of interest (TEST), and green fluorescent protein (sfGFP).
(§2) Construct Plasmid Preparation: All plasmids are isolated from MACH1 cells (ThermoFisher) grown overnight in ampicillin-containing luria broth, and purified using ZymoPure Express Plasmid Midiprep Kit (Zymo Research). Constructs are sequenced verified and diluted to a working concentration of 110 ng/μL.
(§3) HeLa S3 Lysate Preparation: HeLa S3 cell pellets are acquired from Ipracell/Ipratech (Belgium) and shipped as 4 mL frozen cell pellets on dry ice for storage at −80° C. until use. The procedure for lysate preparation is as follows. Prepare 1× Lysis Buffer, cold and stored on ice:
(§4) Each preparation takes 8 cell pellets (4 ml packed volume each, approximately 1.0×10^9 cells per pellet). Thaw cell pellets from −80° C. on ice for 90 mins. Lay pellets horizontally on top of the ice and rotate every 30 mins to ensure even thawing. Once thawed, add 4 mL of cold lysis buffer to each pellet, and using a serological pipet, gently pipet up and down to break up clumps. Incubate resuspended cells in ice for an additional 30 mins (plunged into ice). During 30 min incubation, rinse and RNase-zap (Ambion) glass dounces (use loose pestle “A”), gently dry and place on ice until needed. Prepare RNase-free Eppendorf tubes for spinning and for batch storage. Add batch labels to 1.5-1.7 mL RNase-free microcentrifuge tubes (labeling scheme below). Each batch will have an extra 1.5-1.7 mL RNase-free microcentrifuge tube for 40 μL of lysate, label the top of this tube (labeling scheme below). After 30 min incubation, transfer all 8 mL of cell pellet to dounce. Cell lysis is complete after douncing 100 times. Aliquot cell lysis into 1.5-1.7 mL temporary-microcentrifuge tubes. Place tubes in centrifuge with “fins” out, and spin at 1,200×g for 5 mins. After the first spin use a 1 mL pipet to resuspend each tube and repeat spin. This acts as an additional lysis step, is more vigorous and increases lysate yield. During second spin get liquid N2 and a fresh conical tube on ice. After spin is complete, transfer supernatant (lysate) from microcentrifuge tubes into the 50 mL conical tube and keep on ice. Repeat steps 10-14 for all other cell pellets until completed. Once all cell lysate has been transferred to the 50 mL conical tube pipet to mix so the solution is homogenous. Transfer 1 mL of lysate into batch-labeled microcentrifuge tubes and flash freeze in liquid nitrogen. Be sure to pipet up and down to mix throughout transfer step. Place all tubes in the […] for long-term storage.
(§5) In vitro transcription-translation assay setup: Each assay includes a master mix containing lysate and shared components, a 96-well plate containing compound titrations for testing, a 96-well DNA plate with reporter constructs to be tested, 96-well skirted PCR plates, and 96-well flat-bottom, black, fluorescent assay plates. […]

KRAS G12D = test: In vitro transcription-translation (IVTT) assay, KRAS G12D reporter
Text: as §1, §2, §3, §4, §5

Row | SMILES | IC50 (MYC) | IC50 (ALK) | IC50 (KRAS G12D)
1 | COc1ccc(C[C@H]2NC[C@H](O)[C@H]2OC(=O)NCCN2CC(O)(CNC(C)=O)C2)cc1 [V187582, (2R,3S,4S)-4-hydroxy-2-[(4-methoxyphenyl)methyl]pyrrolidin-3-yl N-{2-[3-(acetamidomethyl)-3-hydroxyazetidin-1-yl]ethyl}carbamate hydrochloride] | > 30 µM | 10 to 20 µM | > 30 µM
2 | COc1ccc(C[C@H]2NC[C@H](O)[C@H]2OC(=O)NCC[C@H]2CN(CC3CC3)CCN2Cc2ccccc2)cc1 [V187344] | > 30 µM | > 30 µM | > 30 µM
3 | CCNc1c(NCCNC(=O)O[C@@H]2[C@@H](O)CN[C@@H]2Cc2ccc(OC)cc2)c(=O)c1=O [V187589, (2R,3S,4S)-4-hydroxy-2-[(4-methoxyphenyl)methyl]pyrrolidin-3-yl N-(2-{[2-(ethylamino)-3,4-dioxocyclobut-1-en-1-yl]amino}ethyl)carbamate; trifluoroacetic acid] | > 30 µM | > 30 µM | > 30 µM
4 | COc1ccc(C[C@H]2NC[C@H](O)[C@H]2OC(=O)NCCCCN)cc1 [V187592, (2R,3S,4S)-4-hydroxy-2-[(4-methoxyphenyl)methyl]pyrrolidin-3-yl N-(4-aminobutyl)carbamate; trifluoroacetic acid] | < 10 µM | < 10 µM | < 10 µM
5 | COc1ccc(C[C@@H]2NC[C@@H](O)[C@H]2OC(=O)NCCN(Cc2c[nH]cn2)C(=O)C2CCC2)cc1 [V187540, (2S,3S,4R)-4-hydroxy-2-[(4-methoxyphenyl)methyl]pyrrolidin-3-yl N-{2-[1-cyclobutyl-N-(1H-imidazol-4-ylmethyl)formamido]ethyl}carbamate] | > 30 µM | 10 to 20 µM | > 30 µM
6 | COc1ccc(C[C@H]2NC[C@H](O)[C@H]2OC(=O)NCCN2C[C@@H](NC(=O)C3CC(F)(F)C3)[C@H](NC(=O)C3CC(F)(F)C3)C2)cc1 [V187554] | > 30 µM | > 30 µM | > 30 µM
7 | CCN(CC)CCCNC(=O)O[C@@H]1[C@@H](O)CN[C@@H]1Cc1ccc(OC)cc1 [V187387, (2R,3S,4S)-4-hydroxy-2-[(4-methoxyphenyl)methyl]pyrrolidin-3-yl N-[3-(diethylamino)propyl]carbamate trifluoroacetic acid salt] | 20 to 30 µM | < 10 µM | > 30 µM
8 | COc1ccc(C[C@H]2NC[C@H](O)[C@H]2OC(=O)NC2CC(F)(F)C2)cc1 [V187191, (2R,3S,4S)-4-hydroxy-2-[(4-methoxyphenyl)methyl]pyrrolidin-3-yl N-(3,3-difluorocyclobutyl)carbamate; trifluoroacetic acid] | 20 to 30 µM | < 10 µM | > 30 µM
9 | COc1ccc(C[C@H]2NC[C@H](O)[C@H]2OC(=O)NCCN2CCN(Cc3ccccc3)CC2)cc1 [V187465, (2R,3S,4S)-4-hydroxy-2-[(4-methoxyphenyl)methyl]pyrrolidin-3-yl N-[2-(4-benzylpiperazin-1-yl)ethyl]carbamate] | < 10 µM | < 10 µM | 10 to 20 µM
10 | CCN(CC)CCCCNC(=O)O[C@@H]1[C@@H](O)CN[C@@H]1Cc1ccc(OC)cc1 [V187385, (2R,3S,4S)-4-hydroxy-2-[(4-methoxyphenyl)methyl]pyrrolidin-3-yl N-[4-(diethylamino)butyl]carbamate; trifluoroacetic acid] | 10 to 20 µM | < 10 µM | 20 to 30 µM
11 | COc1ccc(C[C@H]2NC[C@H](O)[C@H]2OC(=O)Nc2nnc(C)s2)cc1 [V187553, (2R,3S,4S)-4-hydroxy-2-[(4-methoxyphenyl)methyl]pyrrolidin-3-yl N-(5-methyl-1,3,4-thiadiazol-2-yl)carbamate; trifluoroacetic acid] | > 30 µM | > 30 µM | > 30 µM
12 | CCN(CC)CCOCCNC(=O)O[C@@H]1[C@@H](O)CN[C@@H]1Cc1ccc(OC)cc1 [V187625, (2R,3S,4S)-4-hydroxy-2-[(4-methoxyphenyl)methyl]pyrrolidin-3-yl N-{2-[2-(diethylamino)ethoxy]ethyl}carbamate; trifluoroacetic acid] | > 30 µM | > 30 µM | > 30 µM
13 | COc1ccc(C[C@H]2NC[C@H](O)[C@H]2OC(=O)NCCN2CCC2)cc1 [V187566, (2R,3S,4S)-4-hydroxy-2-[(4-methoxyphenyl)methyl]pyrrolidin-3-yl N-[2-(azetidin-1-yl)ethyl]carbamate; trifluoroacetic acid] | > 30 µM | 10 to 20 µM | > 30 µM

Other lines, results leading:

Row | IC50 (MYC) | IC50 (ALK) | IC50 (KRAS G12D) | SMILES
14 | > 30 µM | 20 to 30 µM | > 30 µM | COc1ccc(C[C@H]2NC[C@H](O)[C@H]2OC(=O)NCC[C@H]2CNCCN2Cc2ccccc2)cc1 [V187568, (2R,3S,4S)-4-hydroxy-2-[(4-methoxyphenyl)methyl]pyrrolidin-3-yl N-{2-[(2S)-1-benzylpiperazin-2-yl]ethyl}carbamate]
15 | 10 to 20 µM | < 10 µM | 20 to 30 µM | COc1ccc(C[C@H]2NC[C@H](O)[C@H]2OC(=O)NCCOCCN2C(=O)CNC2=O)cc1 [V187627]
16 | > 30 µM | > 30 µM | > 30 µM | COc1ccc(C[C@H]2NC[C@H](O)[C@H]2OC(=O)NC[C@@H]2NC(=O)CNC2=O)cc1 [V187381, (2R,3S,4S)-4-hydroxy-2-[(4-methoxyphenyl)methyl]pyrrolidin-3-yl N-{[(2S)-3,6-dioxopiperazin-2-yl]methyl}carbamate]
17 | < 10 µM | < 10 µM | 10 to 20 µM | COc1ccc(C[C@H]2NC[C@H](O)[C@H]2OC(=O)NCCOCCn2ccnc2)cc1 [V187628, (2R,3S,4S)-4-hydroxy-2-[(4-methoxyphenyl)methyl]pyrrolidin-3-yl N-{2-[2-(imidazol-1-yl)ethoxy]ethyl}carbamate; trifluoroacetic acid]
18 | 20 to 30 µM | > 30 µM | > 30 µM | COc1ccc(C[C@H]2NC[C@H](O)[C@H]2OC(=O)NC[C@@H]2CCCN2)cc1 [V187684, (2R,3S,4S)-4-hydroxy-2-[(4-methoxyphenyl)methyl]pyrrolidin-3-yl N-[(2S)-pyrrolidin-2-ylmethyl]carbamate; trifluoroacetic acid]
19 | < 10 µM | < 10 µM | 20 to 30 µM | COc1ccc(CC2NCC(O)[C@H]2OC(=O)NCCN(Cc2ccccn2)Cc2ccccn2)cc1 (stereo in doubt) [V187537, (2S,3S,4R)-4-hydroxy-2-[(4-methoxyphenyl)methyl]pyrrolidin-3-yl N-{2-[bis(pyridin-2-ylmethyl)amino]ethyl}carbamate; trifluoroacetic acid]
20 | > 30 µM | < 10 µM | > 30 µM | COc1ccc(C[C@H]2NC[C@H](O)[C@H]2OC(=O)NCCN2CC(N)C2)cc1 [V187624, (2R,3S,4S)-4-hydroxy-2-[(4-methoxyphenyl)methyl]pyrrolidin-3-yl N-[2-(3-aminoazetidin-1-yl)ethyl]carbamate]
21 | > 30 µM | > 30 µM | > 30 µM | CCN(Cc1ccccc1)Cc1nnc(NC(=O)O[C@@H]2[C@@H](O)CN[C@@H]2Cc2ccc(OC)cc2)s1 [V187597, (2R,3S,4S)-4-hydroxy-2-[(4-methoxyphenyl)methyl]pyrrolidin-3-yl N-(5-{[benzyl(ethyl)amino]methyl}-1,3,4-thiadiazol-2-yl)carbamate]
22 | > 30 µM | > 30 µM | > 30 µM | COc1ccc(C[C@H]2NC[C@H](O)[C@H]2OC(=O)NCC[C@H]2CN(Cc3ccccc3)CCN2Cc2ccccc2)cc1 [V187315]
